In ChEMBL document CHEMBL1806455, “Synthesis, activity and pharmacokinetics of novel antibacterial 15-membered ring macrolones” (Eur J Med Chem, 2011):
≈ marks a conversion by molar mass, not a printed value.

Columns and labels:
Assay type in all cases: functional
Staphylococcus aureus [1] = test: Antibacterial activity against erythromycin-sensitive Staphylococcus aureus ATCC 13709 by broth microdilution method
Streptococcus pneumoniae [2] = test: Antibacterial activity against erythromycin-sensitive Streptococcus pneumoniae SP030 by broth microdilution method
Streptococcus pyogenes [3] = test: Antibacterial activity against erythromycin-sensitive Streptococcus pyogenes 3565 by broth microdilution method
Staphylococcus aureus [4] = test: Antibacterial activity against efflux-mediated macrolide-resistant Staphylococcus aureus PK1 by broth microdilution method
Streptococcus pneumoniae [5] = test: Antibacterial activity against efflux-mediated macrolide-resistant Streptococcus pneumoniae Ci137 by broth microdilution method
Streptococcus pyogenes [6] = test: Antibacterial activity against efflux-mediated macrolide-resistance Streptococcus pyogenes 2 Finland by broth microdilution method
Staphylococcus aureus [7] = test: Antibacterial activity against inducible macrolide-lincosamide-streptogramin B resistant Staphylococcus aureus 90256 by broth microdilution method
Streptococcus pneumoniae [8] = test: Antibacterial activity against inducible macrolide-resistant, constitutive lincosamide, streptogramin-resistant Streptococcus pneumoniae 134 GR M by broth microdilution method
Streptococcus pyogenes [9] = test: Antibacterial activity against inducible macrolide-lincosamide-streptogramin B resistant Streptococcus pyogenes Finland 11 by broth microdilution method
Staphylococcus aureus [10] = test: Antibacterial activity against constitutive macrolide, lincosamide, streptogramin-resistant Staphylococcus aureus PK2 by broth microdilution method
Streptococcus pneumoniae [11] = test: Antibacterial activity against constitutive macrolide, lincosamide, streptogramin-resistant Streptococcus pneumoniae 58 spain by broth microdilution method
Streptococcus pyogenes [12] = test: Antibacterial activity against macrolide, lincosamide, streptogramin-resistant Streptococcus pyogenes 166 GR-Micro by broth microdilution method
Haemophilus influenzae = test: Antibacterial activity against Haemophilus influenzae ATCC 49247 by broth microdilution method
Moraxella catarrhalis = test: Antibacterial activity against Moraxella catarrhalis ATCC 23246 by broth microdilution method

SMILES: CC[C@H]1OC(=O)[C@H](C)[C@@H](O[C@H]2C[C@@](C)(OC)[C@@H](OC(=O)CCOCCOCCNc3ccc4c(c3)c(=O)c(C(=O)O)cn4C3CC3)[C@H](C)O2)[C@H](C)[C@@H](O[C@@H]2O[C@H](C)C[C@H](N(C)C)[C@H]2O)[C@](C)(O)C[C@@H](C)CN(C)[C@H](C)[C@@H](O)[C@]1(C)O
- MIC (Staphylococcus aureus [1]): ≤ 0.125 µg/mL
- MIC (Streptococcus pneumoniae [2]): ≤ 0.125 µg/mL
- MIC (Streptococcus pyogenes [3]): ≤ 0.125 µg/mL
- MIC (Staphylococcus aureus [4]): ≤ 0.125 µg/mL
- MIC (Streptococcus pneumoniae [5]): ≤ 0.125 µg/mL
- MIC (Streptococcus pyogenes [6]): ≤ 0.125 µg/mL
- MIC (Staphylococcus aureus [7]): 0.5 µg/mL (≈ 0.44 µM)
- MIC (Streptococcus pneumoniae [8]): ≤ 0.125 µg/mL
- MIC (Streptococcus pyogenes [9]): ≤ 0.125 µg/mL
- MIC (Staphylococcus aureus [10]): 16 µg/mL (≈ 14.1 µM)
- MIC (Streptococcus pneumoniae [11]): ≤ 0.125 µg/mL
- MIC (Streptococcus pyogenes [12]): ≤ 0.125 µg/mL
- MIC (Haemophilus influenzae): 0.5 µg/mL (≈ 0.44 µM)
- MIC (Moraxella catarrhalis): 0.25 µg/mL (≈ 0.22 µM)

SMILES: CC[C@H]1OC(=O)[C@H](C)[C@@H](O[C@H]2C[C@@](C)(OC)[C@@H](OC(=O)CCOCCNc3ccc4c(c3)c(=O)c(C(=O)OC(C)C)cn4C3CC3)[C@H](C)O2)[C@H](C)[C@@H](O[C@@H]2O[C@H](C)C[C@H](N(C)C)[C@H]2O)[C@](C)(O)C[C@@H](C)CN(C)[C@H](C)[C@@H](O)[C@]1(C)O
- MIC (Staphylococcus aureus [1]): 0.5 µg/mL (≈ 0.441 µM)
- MIC (Streptococcus pneumoniae [2]): ≤ 0.125 µg/mL
- MIC (Streptococcus pyogenes [3]): ≤ 0.125 µg/mL
- MIC (Staphylococcus aureus [4]): 8 µg/mL (≈ 7.06 µM)
- MIC (Streptococcus pneumoniae [5]): ≤ 0.125 µg/mL
- MIC (Streptococcus pyogenes [6]): ≤ 0.125 µg/mL
- MIC (Staphylococcus aureus [7]): 16 µg/mL (≈ 14.1 µM)
- MIC (Streptococcus pneumoniae [8]): ≤ 0.125 µg/mL
- MIC (Streptococcus pyogenes [9]): ≤ 0.125 µg/mL
- MIC (Staphylococcus aureus [10]): > 64 µg/mL
- MIC (Streptococcus pneumoniae [11]): ≤ 0.125 µg/mL
- MIC (Streptococcus pyogenes [12]): ≤ 0.125 µg/mL
- MIC (Haemophilus influenzae): 4 µg/mL (≈ 3.53 µM)
- MIC (Moraxella catarrhalis): 4 µg/mL (≈ 3.53 µM)

SMILES: CC[C@H]1OC(=O)[C@H](C)[C@@H](O[C@H]2C[C@@](C)(OC)[C@@H](OC(=O)CCOCCOc3ccc4c(c3)c(=O)c(C(=O)O)cn4C3CC3)[C@H](C)O2)[C@H](C)[C@@H](O[C@@H]2O[C@H](C)C[C@H](N(C)C)[C@H]2O)[C@](C)(O)C[C@@H](C)CN(C)[C@H](C)[C@@H](O)[C@]1(C)O
- MIC (Staphylococcus aureus [1]): ≤ 0.125 µg/mL
- MIC (Streptococcus pneumoniae [2]): ≤ 0.125 µg/mL
- MIC (Streptococcus pyogenes [3]): ≤ 0.125 µg/mL
- MIC (Staphylococcus aureus [4]): 0.25 µg/mL (≈ 0.229 µM)
- MIC (Streptococcus pneumoniae [5]): ≤ 0.125 µg/mL
- MIC (Streptococcus pyogenes [6]): ≤ 0.125 µg/mL
- MIC (Staphylococcus aureus [7]): 1 µg/mL (≈ 0.915 µM)
- MIC (Streptococcus pneumoniae [8]): ≤ 0.125 µg/mL
- MIC (Streptococcus pyogenes [9]): ≤ 0.125 µg/mL
- MIC (Staphylococcus aureus [10]): 32 µg/mL (≈ 29.3 µM)
- MIC (Streptococcus pneumoniae [11]): ≤ 0.125 µg/mL
- MIC (Streptococcus pyogenes [12]): 0.25 µg/mL (≈ 0.229 µM)
- MIC (Haemophilus influenzae): 0.5 µg/mL (≈ 0.458 µM)
- MIC (Moraxella catarrhalis): 0.5 µg/mL (≈ 0.458 µM)

SMILES: CC[C@H]1OC(=O)[C@H](C)[C@@H](O[C@H]2C[C@@](C)(OC)[C@@H](OC(=O)CCOCCNc3cc4c(=O)c(C(=O)OCOCCOC)cn(C5CC5)c4cc3Cl)[C@H](C)O2)[C@H](C)[C@@H](O[C@@H]2O[C@H](C)C[C@H](N(C)C)[C@H]2O)[C@](C)(O)C[C@@H](C)CN(C)[C@H](C)[C@@H](O)[C@]1(C)O
- MIC (Staphylococcus aureus [1]): 1 µg/mL (≈ 0.824 µM)
- MIC (Streptococcus pneumoniae [2]): ≤ 0.125 µg/mL
- MIC (Streptococcus pyogenes [3]): ≤ 0.125 µg/mL
- MIC (Staphylococcus aureus [4]): 2 µg/mL (≈ 1.65 µM)
- MIC (Streptococcus pneumoniae [5]): ≤ 0.125 µg/mL
- MIC (Streptococcus pyogenes [6]): ≤ 0.125 µg/mL
- MIC (Staphylococcus aureus [7]): 2 µg/mL (≈ 1.65 µM)
- MIC (Streptococcus pneumoniae [8]): ≤ 0.125 µg/mL
- MIC (Streptococcus pyogenes [9]): ≤ 0.125 µg/mL
- MIC (Staphylococcus aureus [10]): > 64 µg/mL
- MIC (Streptococcus pneumoniae [11]): 0.25 µg/mL (≈ 0.206 µM)
- MIC (Streptococcus pyogenes [12]): ≤ 0.125 µg/mL
- MIC (Haemophilus influenzae): 8 µg/mL (≈ 6.59 µM)
- MIC (Moraxella catarrhalis): 8 µg/mL (≈ 6.59 µM)

SMILES: CC[C@H]1OC(=O)[C@H](C)[C@@H](O[C@H]2C[C@@](C)(OC)[C@@H](O)[C@H](C)O2)[C@H](C)[C@@H](O[C@@H]2O[C@H](C)C[C@H](N(C)C)[C@H]2O)[C@](C)(O)C[C@@H](C)CN(C)[C@H](C)[C@@H](O)[C@]1(C)O [AZITHROMYCIN]
- MIC (Staphylococcus aureus [1]): 0.5 µg/mL (≈ 0.668 µM)
- MIC (Streptococcus pneumoniae [2]): ≤ 0.125 µg/mL
- MIC (Streptococcus pyogenes [3]): ≤ 0.125 µg/mL
- MIC (Staphylococcus aureus [4]): 32 µg/mL (≈ 42.7 µM)
- MIC (Streptococcus pneumoniae [5]): 8 µg/mL (≈ 10.7 µM)
- MIC (Streptococcus pyogenes [6]): 8 µg/mL (≈ 10.7 µM)
- MIC (Staphylococcus aureus [7]): > 64 µg/mL
- MIC (Streptococcus pneumoniae [8]): > 64 µg/mL
- MIC (Streptococcus pyogenes [9]): 16 µg/mL (≈ 21.4 µM)
- MIC (Staphylococcus aureus [10]): > 64 µg/mL
- MIC (Streptococcus pneumoniae [11]): > 64 µg/mL
- MIC (Streptococcus pyogenes [12]): > 64 µg/mL
- MIC (Haemophilus influenzae): 1 µg/mL (≈ 1.34 µM)
- MIC (Moraxella catarrhalis): ≤ 0.125 µg/mL

SMILES: CC[C@H]1OC(=O)[C@H](C)[C@@H](O[C@H]2C[C@@](C)(OC)[C@@H](OC(=O)CCOCCOc3cc4c(=O)c(C(=O)O)cn(C5CC5)c4cc3Cl)[C@H](C)O2)[C@H](C)[C@@H](O[C@@H]2O[C@H](C)C[C@H](N(C)C)[C@H]2O)[C@](C)(O)C[C@@H](C)CN(C)[C@H](C)[C@@H](O)[C@]1(C)O
- MIC (Staphylococcus aureus [1]): 0.25 µg/mL (≈ 0.222 µM)
- MIC (Streptococcus pneumoniae [2]): ≤ 0.125 µg/mL
- MIC (Streptococcus pyogenes [3]): ≤ 0.125 µg/mL
- MIC (Staphylococcus aureus [4]): 0.5 µg/mL (≈ 0.444 µM)
- MIC (Streptococcus pneumoniae [5]): ≤ 0.125 µg/mL
- MIC (Streptococcus pyogenes [6]): ≤ 0.125 µg/mL
- MIC (Staphylococcus aureus [7]): 0.5 µg/mL (≈ 0.444 µM)
- MIC (Streptococcus pneumoniae [8]): 0.25 µg/mL (≈ 0.222 µM)
- MIC (Streptococcus pyogenes [9]): ≤ 0.125 µg/mL
- MIC (Staphylococcus aureus [10]): > 64 µg/mL
- MIC (Streptococcus pneumoniae [11]): 0.5 µg/mL (≈ 0.444 µM)
- MIC (Streptococcus pyogenes [12]): 0.25 µg/mL (≈ 0.222 µM)
- MIC (Haemophilus influenzae): 1 µg/mL (≈ 0.887 µM)
- MIC (Moraxella catarrhalis): 1 µg/mL (≈ 0.887 µM)
